Test results reported in patent US12077503B2, “Substituted cyclic amides and their use as herbicides” (FMC CORPORATION, priority 2015, dated 2024).

Assays:
Format in all cases: in vivo
[1] = test system: velvetleaf (Abutilon theophrasti); assay: Test G Pre-Emergence Protocol; conditions: Abutilon theophrasti, pre-emergence, 312 h, evaluated after 13 days
Procedure, shortened: (§1)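 Pots of seeds in standard soil were grown for one day in a glasshouse (24/16 °C day/night, 14 h light, 65% humidity), then sprayed with compound in acetone/water 50:50 with 0.5% Tween 20 at 15.625, 62.5 or 250 g/ha. Damage was scored after 13 days on a 0 (none) to 100 (total) scale.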

[2] = test system: barnyardgrass (Echinochloa crus-galli); assay: Test G Pre-Emergence Protocol; conditions: Echinochloa crus-galli, pre-emergence, 312 h, evaluated after 13 days
Procedure, shortened: as §1

[3] = test system: giant foxtail (Setaria faberi); assay: Test G Pre-Emergence Protocol; conditions: Setaria faberi, pre-emergence, 312 h, evaluated after 13 days
Procedure, shortened: as §1

[4] = test system: ivy-leaved morning glory (Ipomoea hederacea); assay: Test G Pre-Emergence Protocol; conditions: Ipomoea, pre-emergence, 312 h, evaluated after 13 days
Procedure, shortened: as §1

[5] = test system: redroot pigweed (Amaranthus retroflexus); assay: Test G Pre-Emergence Protocol; conditions: Amaranthus retroflexus, pre-emergence, 312 h, evaluated after 13 days
Procedure, shortened: as §1

corn (Zea mays) [6] = assay: Test G Pre-Emergence Protocol; conditions: Zea mays, pre-emergence, 312 h, evaluated after 13 days
Procedure, shortened: as §1

[7] = test system: velvetleaf (Abutilon theophrasti); assay: Test G Post-Emergence Protocol; conditions: Abutilon theophrasti, post-emergence, 312 h
Procedure, shortened: (§2)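 Scores run 0 (no damage) to 100 (total damage) and were taken 13 days after spraying. Plants had been raised in pots for 8 days under glasshouse control (24/16 °C, 14 h photoperiod, 65% humidity) and then treated at 15.625, 62.5 or 250 g/ha.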

[8] = test system: barnyardgrass (Echinochloa crus-galli); assay: Test G Post-Emergence Protocol; conditions: Echinochloa crus-galli, post-emergence, 312 h
Procedure, shortened: as §2

[9] = test system: giant foxtail (Setaria faberi); assay: Test G Post-Emergence Protocol; conditions: Setaria faberi, post-emergence, 312 h
Procedure, shortened: as §2

[10] = test system: ivy-leaved morning glory (Ipomoea hederacea); assay: Test G Post-Emergence Protocol; conditions: Ipomoea, post-emergence, 312 h
Procedure, shortened: as §2

[11] = test system: redroot pigweed (Amaranthus retroflexus); assay: Test G Post-Emergence Protocol; conditions: Amaranthus retroflexus, post-emergence, 312 h
Procedure, shortened: as §2

corn (Zea mays) [12] = assay: Test G Post-Emergence Protocol; conditions: Zea mays, post-emergence, 312 h
Procedure, shortened: as §2

SMILES: COc1c(Cl)ccc([C@H]2CNC(=O)[C@@H]2C(=O)Nc2cccc(F)c2F)c1F (racemic) [Compound 1472]
- pest or weed control at 15.625 g/ha ([1]; 15.625 g ai/ha, read-out: Velvetleaf damage rating (100=total damage to plant; 0=no damage to plant)): 0%
- pest or weed control at 62.5 g/ha ([1]; 62.5 g ai/ha, 100=total damage to plant, 0=no damage to plant, read-out: plant damage rating, Velvetleaf): 0%
- pest or weed control at 250 g/ha ([1]; 250 g ai/ha, read-out: Velvetleaf damage rating (100=total damage to plant; 0=no damage to plant)): 0%
- pest or weed control at 15.625 g/ha ([2]; 15.625 g ai/ha, read-out: Barnyard grass damage rating (100=total damage to plant; 0=no damage to plant)): 10%
- pest or weed control at 62.5 g/ha ([2]; 62.5 g ai/ha, 100=total damage to plant, 0=no damage to plant, read-out: plant damage rating, Barnyardgrass): 40%
- pest or weed control at 250 g/ha ([2]; 250 g ai/ha, read-out: Barnyardgrass damage rating (100=total damage to plant; 0=no damage to plant)): 80%
- pest or weed control at 15.625 g/ha ([3]; 15.625 g ai/ha, read-out: Foxtail, Giant damage rating (100=total damage to plant; 0=no damage to plant)): 10%
- pest or weed control at 62.5 g/ha ([3]; 62.5 g ai/ha, 100=total damage to plant, 0=no damage to plant, read-out: plant damage rating, Foxtail, Giant): 50%
- pest or weed control at 250 g/ha ([3]; 250 g ai/ha, read-out: Foxtail, Giant damage rating (100=total damage to plant; 0=no damage to plant)): 80%
- pest or weed control at 15.625 g/ha ([4]; 15.625 g ai/ha, read-out: Morning-glory, Ivy-leaved damage rating (100=total damage to plant; 0=no damage to plant)): 0%
- pest or weed control at 62.5 g/ha ([4]; 62.5 g ai/ha, 100=total damage to plant, 0=no damage to plant, read-out: plant damage rating, Morningglory, Ivy-leaved): 0%
- pest or weed control at 250 g/ha ([4]; 250 g ai/ha, read-out: Morningglory, Ivy-leaved damage rating (100=total damage to plant; 0=no damage to plant)): 0%
- pest or weed control at 15.625 g/ha ([5]; 15.625 g ai/ha, read-out: Pigweed, Redroot damage rating (100=total damage to plant; 0=no damage to plant)): 0%
- pest or weed control at 62.5 g/ha ([5]; 62.5 g ai/ha, 100=total damage to plant, 0=no damage to plant, read-out: plant damage rating, Pigweed, Redroot): 0%
- pest or weed control at 250 g/ha ([5]; 250 g ai/ha, read-out: Pigweed, Redroot damage rating (100=total damage to plant; 0=no damage to plant)): 0%
- plant injury at 15.625 g/ha (corn (Zea mays) [6]; 15.625 g ai/ha, read-out: Corn damage rating (100=total damage to plant; 0=no damage to plant)): 0%
- plant injury at 62.5 g/ha (corn (Zea mays) [6]; 62.5 g ai/ha, 100=total damage to plant, 0=no damage to plant, read-out: plant damage rating, Corn): 0%
- plant injury at 250 g/ha (corn (Zea mays) [6]; 250 g ai/ha, read-out: Corn damage rating (100=total damage to plant; 0=no damage to plant)): 20%
- pest or weed control at 15.625 g/ha ([7]; 15.625 g ai/ha, evaluated after 13 days (100=total damage to plant; 0=no damage to plant), read-out: Velvetleaf damage rating): 0%
- pest or weed control at 62.5 g/ha ([7]; 62.5 g ai/ha, evaluated after 13 days, read-out: Velvetleaf damage rating (100=total damage to plant; 0=no damage to plant)): 10%
- pest or weed control at 250 g/ha ([7]; 250 g ai/ha, evaluated after 13 days, read-out: damage to plant, Velvetleaf (100=total damage to plant; 0=no damage to plant)): 10%
- pest or weed control at 15.625 g/ha ([8]; 15.625 g ai/ha, evaluated after 13 days (100=total damage to plant; 0=no damage to plant), read-out: Barnyardgrass damage rating): 10%
- pest or weed control at 62.5 g/ha ([8]; 62.5 g ai/ha, evaluated after 13 days, read-out: Barnyardgrass damage rating (100=total damage to plant; 0=no damage to plant)): 30%
- pest or weed control at 250 g/ha ([8]; 250 g ai/ha, evaluated after 13 days, read-out: damage to plant, Barnyardgrass (100=total damage to plant; 0=no damage to plant)): 50%
- pest or weed control at 15.625 g/ha ([9]; 15.625 g ai/ha, evaluated after 13 days (100=total damage to plant; 0=no damage to plant), read-out: Foxtail, Giant damage rating): 10%
- pest or weed control at 62.5 g/ha ([9]; 62.5 g ai/ha, evaluated after 13 days, read-out: Foxtail, Giant damage rating (100=total damage to plant; 0=no damage to plant)): 50%
- pest or weed control at 250 g/ha ([9]; 250 g ai/ha, evaluated after 13 days, read-out: damage to plant, Foxtail, Giant (100=total damage to plant; 0=no damage to plant)): 70%
- pest or weed control at 15.625 g/ha ([10]; 15.625 g ai/ha, evaluated after 13 days (100=total damage to plant; 0=no damage to plant), read-out: Morningglory, Ivy-leaved damage rating): 20%
- pest or weed control at 62.5 g/ha ([10]; 62.5 g ai/ha, evaluated after 13 days, read-out: Morningglory, Ivy-leaved damage rating (100=total damage to plant; 0=no damage to plant)): 20%
- pest or weed control at 250 g/ha ([10]; 250 g ai/ha, evaluated after 13 days, read-out: damage to plant, Morningglory, Ivy-leaved (100=total damage to plant; 0=no damage to plant)): 20%
- pest or weed control at 15.625 g/ha ([11]; 15.625 g ai/ha, evaluated after 13 days (100=total damage to plant; 0=no damage to plant), read-out: Pigweed, Redroot damage rating): 0%
- pest or weed control at 62.5 g/ha ([11]; 62.5 g ai/ha, evaluated after 13 days, read-out: Pigweed, Redroot damage rating (100=total damage to plant; 0=no damage to plant)): 10%
- pest or weed control at 250 g/ha ([11]; 250 g ai/ha, evaluated after 13 days, read-out: damage to plant, Pigweed, Redroot (100=total damage to plant; 0=no damage to plant)): 10%
- plant injury at 15.625 g/ha (corn (Zea mays) [12]; 15.625 g ai/ha, evaluated after 13 days (100=total damage to plant; 0=no damage to plant), read-out: Corn damage rating): 10%
- plant injury at 62.5 g/ha (corn (Zea mays) [12]; 62.5 g ai/ha, evaluated after 13 days, read-out: Corn damage rating (100=total damage to plant; 0=no damage to plant)): 20%
- plant injury at 250 g/ha (corn (Zea mays) [12]; 250 g ai/ha, evaluated after 13 days, read-out: damage to plant, Corn (100=total damage to plant; 0=no damage to plant)): 40%
